Data published in patent US11384060B2, “Amide compounds and use thereof” (ALPHALA CO., LTD., priority 2017, dated 2022).
Read-outs that look alike come from different tables or passages of the source.

How the values were obtained:
glucagon receptor (GCGR) = target: T1, glucagon receptor (GCGR) (Homo sapiens, UniProt P47871); assay: I125-glucagon binding assay (competition, GCGR membrane fractions)
T1 construct: expressed in transfected cells; host or cells: CHO-K1 cells overexpressing GCGR (membrane fractions)
Experimental: I^125-Glucagon Binding Assay
The binding affinity of each compound was evaluated by a competition assay with I^125-glucagon. GCGR membrane fractions were obtained from GCGR overexpressed CHO-K1 cells as a stock of 1 mg/ml concentration. To evaluate the IC50 of compounds binding to GCGR, GCGR membrane fractions were treated with compounds with a serial dilution. The membrane fractions were diluted to 7.5 microgram per well in 70 microliter assay buffer contained 50 mM Tris pH 7.4 and 0.5% (w/v) bovine serum albumin and added into 96 wells plate. The membrane fractions were then mixed with 10 microliter diluted compounds. After 5 minutes pre-incubation, 20 microliter I^125 labeled glucagon (Perkin Elmer) was added into each well at the final concentration of 0.0625 nM. The assay mixtures were incubated at 25° C. for 30 minutes and then transferred onto the Millipore MultiScreen GF/B Plate coated with 0.5% (w/v) Polyethyleneimine. The filter plate was washed with wash buffer contained 50 mM Tris pH 7.4 for 2 times, 300 microliter each time. The residual isotope was detected by Hidex CHAMELEON V micro-beta counter and the IC50 value of each compound binding to GCGR was calculated with non-linear regression.

[1] = target: T2, glucagon receptor (GCGR) overexpressed CHO-K1 cells or human primary hepatocytes (Homo sapiens, UniProt P47871); assay: Glucagon cAMP inhibition assay (Cisbio cAMP Dynamic 2 HTRF); format: cell-based
T2 construct: expressed in transfected cells; host or cells: GCGR overexpressed CHO-K1 cells or human primary hepatocytes (endogenous receptor)
Experimental: Glucagon cAMP Inhibition Assay
Downstream secondary messenger cAMP induced by glucagon was detected by Cisbio cAMP Dynamic 2 kit. Testing compounds were each prepared as a dimethyl sulfoxide (DMSO) solution at the concentration of 10 mM. To evaluate the potency of compounds in inhibiting the cAMP production, glucagon receptor (GCGR) overexpressed CHO-K1 cells or human primary hepatocytes were treated with compounds with a serial dilution. The cells were re-suspended in Hank's Balanced Salt solution (HBSS) contained 0.1% (w/v) bovine serum albumin and 800 nM 3-isobutyl-1-methylxanthine (IBMX) and seeded into low volume, 384 wells white plate. The diluted compounds were then added into the plate for 30 minutes pre-incubation where the final DMSO concentration was 1%. The cells were stimulated with glucagon at the concentration equaled to EC50 (an indicium of the concentration of a drug that gives half-maximal response) for 30 minutes at room temperature. After incubation, lysis buffer contain cAMP antibody and fluorescence acceptor were added into each well for additional 60 minutes incubation. Results were recorded by Molecular Devices SpectraMax Paradigm with the HTRF Detection Cartridges and the IC50 value of each compound in inhibiting the cAMP production was calculated with non-linear regression based on the amount of cAMP production.

[2] = competition with I125-glucagon 0.0625 nM, membrane fractions of GCGR overexpressed CHO-K1 cells
[3] = inhibition of glucagon (EC50 concentration) induced cAMP production

T1 sequence (P47871 26-477): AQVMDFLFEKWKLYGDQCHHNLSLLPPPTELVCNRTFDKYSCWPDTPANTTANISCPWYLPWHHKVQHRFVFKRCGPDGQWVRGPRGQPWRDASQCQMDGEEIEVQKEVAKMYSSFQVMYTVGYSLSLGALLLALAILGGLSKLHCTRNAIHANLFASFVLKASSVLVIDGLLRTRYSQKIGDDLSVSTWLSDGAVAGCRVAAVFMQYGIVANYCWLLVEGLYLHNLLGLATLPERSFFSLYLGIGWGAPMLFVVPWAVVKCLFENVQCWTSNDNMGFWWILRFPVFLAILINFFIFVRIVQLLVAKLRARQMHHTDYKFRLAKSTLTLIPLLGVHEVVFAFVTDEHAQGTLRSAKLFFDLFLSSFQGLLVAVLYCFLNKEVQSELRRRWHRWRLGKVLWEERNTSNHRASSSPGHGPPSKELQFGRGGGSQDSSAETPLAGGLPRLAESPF
T2 sequence (P47871 26-477): as above

IC50 (glucagon receptor (GCGR); [2]) [nM] | IC50 cAMP [1, 3] [µM] | Compound | further results
– | – | O=C(O)CCNC(=O)c1ccc(NC(Cc2ccccc2)C(=O)Nc2ccc(C(F)(F)F)cc2)cc1 (stereo in doubt) [Compound 24-4, (S)-3-(4-((1-oxo-3-phenyl-1-((4-(trifluoromethyl)phenyl)amino)propan-2-yl)amino)benzamido)propanoic Acid] | IC50 (glucagon receptor (GCGR)): 6020 nM; IC50 cAMP ([1]; uM): >10 µM
803 | 1.177 | CCOC(=O)CCNC(=O)c1ccc(N[C@H](COc2ccc(-c3cc4ccccc4o3)cc2)C(C)C)cc1 [Compound 1-1, Ethyl(S)-3-(4-((1-(4-(benzofuran-2-yl)phenoxy)-3-methylbutan-2-yl)amino)benzamido) propanoate] | –
207 | 0.1956 | CC(C)[C@@H](COc1ccc(-c2cc3ccccc3o2)cc1)Nc1ccc(C(=O)NCCC(=O)O)cc1 [Compound 1-2, (S)-3-(4-((1-(4-(benzofuran-2-yl)phenoxy)-3-methylbutan-2-yl)amino)benzamido)propanoic Acid] | –
319 | 0.8844 | CC[C@H](C)[C@@H](COc1ccc(-c2ccc(C(C)(C)C)cc2)cc1)Nc1ccc(C(=O)NCCC(=O)O)cc1 [Compound 1-3, 3-(4-(((2S,3S)-1-((4′-(tert-butyl)-[1,1′-biphenyl]-4-yl)oxy)-3-methylpentan-2-yl)amino)benzamido)propanoic Acid] | –
184 | 0.528 | CC[C@H](C)[C@@H](COc1ccc(-c2cc3ccccc3o2)cc1)Nc1ccc(C(=O)NCCC(=O)O)cc1 [Compound 1-4, 3-(4-(((2S,3S)-1-(4-(benzofuran-2-yl)phenoxy)-3-methylpentan-2-yl)amino)benzamido)propanoic Acid] | –
213 | 0.839 | CCC(C)[C@@H](COc1ccc(-c2ccc(C(F)(F)F)cc2)cc1)Nc1ccc(C(=O)NCCC(=O)O)cc1 (stereo partly drawn) [Compound 1-5, 3-(4-(((2S)-3-methyl-1-((4′-(trifluoromethyl)-[1,1′-biphenyl]-4-yl)oxy)pentan-2-yl)amino)benzamido)propanoic Acid] | –
228 | 1.078 | CC[C@H](C)[C@@H](COc1ccc(-c2ccc(OC(F)(F)F)cc2)cc1)Nc1ccc(C(=O)NCCC(=O)O)cc1 [Compound 1-6, 3-(4-(((2S,3S)-3-methyl-1-((4′-(trifluoromethoxy)-[1,1′-biphenyl]-4-yl)oxy)pentan-2-yl)amino)benzamido)propanoic Acid] | –
139 | 0.4948 | CC[C@H](C)[C@@H](COc1ccc(-c2ccc(Cl)cc2Cl)cc1)Nc1ccc(C(=O)NCCC(=O)O)cc1 [Compound 1-7, 3-(4-(((2S,3S)-1-((2′,4′-dichloro-[1,1′-biphenyl]-4-yl)oxy)-3-methylpentan-2-yl)amino)benzamido)propanoic Acid] | –
98 | 3.305 | CC[C@H](C)[C@@H](COc1ccc(-c2cc3ccccc3o2)cc1)Nc1ccc(C(=O)NCc2nnn[nH]2)cc1 [Compound 1-8] | –
260 | 3.6 | CC[C@H](C)[C@@H](COc1ccc(-c2cc3ccccc3o2)cc1)Nc1ccc(C(=O)NC[C@@H](O)C(=O)O)cc1 [Compound 1-9, (R)-3-(4-(((2S,3S)-1-(4-(benzofuran-2-yl)phenoxy)-3-methylpentan-2-yl)amino)benzamido)-2-hydroxypropanoic Acid] | –
122 | 0.6298 | CCCC[C@@H](COc1ccc(-c2cc3ccccc3o2)cc1)Nc1ccc(C(=O)NCCC(=O)O)cc1 [Compound 1-10, (S)-3-(4-((1-(4-(benzofuran-2-yl)phenoxy)hexan-2-yl)amino)benzamido) propanoic Acid] | –
150 | 0.3203 | CCCC[C@@H](COc1ccc(-c2ccc(C(C)(C)C)cc2)cc1)Nc1ccc(C(=O)NCCC(=O)O)cc1 [Compound 1-11, (S)-3-(4-((1-((4′-(tert-butyl)-[1,1′-biphenyl]-4-yl)oxy)hexan-2-yl)amino)benzamido)propanoic Acid] | –
224 | 0.4143 | CC(C)[C@@H](COc1ccc(-c2ccc(N(C)C)cc2)cc1)Nc1ccc(C(=O)NCCC(=O)O)cc1 [Compound 1-12, (S)-3-(4-((1-((4′-(dimethylamino)-[1,1′-biphenyl]-4-yl)oxy)-3-methylbutan-2-yl)amino)benzamido)propanoic Acid] | –
141 | 1.73 | CC[C@H](C)[C@@H](COc1ccc(-c2ccc(Cl)cc2Cl)cc1)Nc1ccc(C(=O)NCc2nnn[nH]2)cc1 [Compound 1-13, N-((1H-tetrazol-5-yl)methyl)-4-(((2S,3S)-1-((2′,4′-dichloro-[1,1′-biphenyl]-4-yl)oxy)-3-methylpentan-2-yl)amino)benzamide] | –
112 | 3.553 | CC[C@H](C)[C@@H](COc1ccc(-c2ccc(Cl)cc2Cl)cc1)Nc1ccc(C(=O)NC[C@@H](O)C(=O)O)cc1 [Compound 1-14, (R)-3-(4-(((2S,3S)-1-((2′,4′-dichloro-[1,1′-biphenyl]-4-yl)oxy)-3-methylpentan-2-yl)amino)benzamido)-2-hydroxypropanoic Acid] | –
– | 0.213 | CC[C@H](C)[C@@H](COc1ccc(-c2ccc(F)cc2F)cc1)Nc1ccc(C(=O)NCCC(=O)O)cc1 [Compound 1-26] | –
883 | – | CC[C@H](C)[C@@H](COc1ccc(-c2nnc(C(C)(C)C)o2)c(OC)c1)Nc1ccc(C(=O)NCCC(=O)O)cc1 [Compound 13-13, 3-(4-(((2S,3S)-1-(4-(5-(tert-butyl)-1,3,4-oxadiazol-2-yl)-3-methoxyphenoxy)-3-methylpentan-2-yl)amino)benzamido)propanoic Acid] | –
– | – | CCC(C)[C@@H](COc1nnc(-c2ccc(OC(F)(F)F)cc2)o1)Nc1ccc(C(=O)NCCC(=O)O)cc1 (stereo partly drawn) [Compound 22-8, 3-(4-(((2S)-3-methyl-1-((5-(4-(trifluoromethoxy)phenyl)-1,3,4-oxadiazol-2-yl)oxy)pentan-2-yl)amino)benzamido)propanoic Acid] | IC50 (glucagon receptor (GCGR)): > 30000 nM
– | – | CCC(C)[C@@H](COc1nnc(-c2ccc(C(C)(C)C)cc2)o1)Nc1ccc(C(=O)NCCC(=O)O)cc1 (stereo partly drawn) [Compound 22-9, 3-(4-(((2S)-1-((5-(4-(tert-butyl)phenyl)-1,3,4-oxadiazol-2-yl)oxy)-3-methylpentan-2-yl)amino)benzamido)propanoic Acid] | IC50 (glucagon receptor (GCGR)): > 30000 nM
– | – | Cc1cc(C)c(-c2ccc(C[C@H](Nc3ccc(C(=O)NCCS(=O)(=O)O)cc3)C(=O)Nc3ccc(C(C)(C)C)cc3)cc2)c(C)c1 [Compound 23-26, (S)-2-(4-((1-((4-(tert-butyl)phenyl)amino)-1-oxo-3-(2′,4′,6′-trimethyl-[1,1′-biphenyl]-4-yl)propan-2-yl)amino)benzamido)ethane-1-sulfonic Acid] | IC50 cAMP [1]: 39.3 µM
– | – | CCOC(=O)CCNC(=O)c1ccc(N[C@@H](Cc2c[nH]c3ccccc23)C(=O)Nc2ccc(-c3cc4ccccc4o3)cc2)cc1 [Compound 23-27, Ethyl (S)-3-(4-((1-((4-(benzofuran-2-yl)phenyl)amino)-3-(1H-indol-3-yl)-1-oxopropan-2-yl)amino)benzamido)propanoate] | IC50 cAMP [1]: 34.6 µM
– | – | CCOC(=O)CCNC(=O)c1ccc(N[C@@H](Cc2cccc3ccccc23)C(=O)NC(C)C)cc1 [Compound 24-11, Ethyl (S)-3-(4-((1-(isopropylamino)-3-(naphthalen-1-yl)-1-oxopropan-2-yl)amino)benzamido)propanoate] | IC50 cAMP ([1]; uM): >10 µM
– | – | CC(C)NC(=O)[C@H](Cc1cccc2ccccc12)Nc1ccc(C(=O)NCCC(=O)O)cc1 [Compound 24-12, (S)-3-(4-((1-(isopropylamino)-3-(naphthalen-1-yl)-1-oxopropan-2-yl)amino)benzamido)propanoic Acid] | IC50 cAMP ([1]; uM): >10 µM
– | – | CCOC(=O)CCNC(=O)c1ccc(N[C@@H](Cc2ccc3ccccc3c2)C(=O)NC(C)C)cc1 [Compound 24-13, Ethyl (S)-3-(4-((1-(isopropylamino)-3-(naphthalen-2-yl)-1-oxopropan-2-yl)amino)benzamido)propanoate] | IC50 cAMP ([1]; uM): >10 µM
– | – | CC(C)NC(=O)[C@H](Cc1ccc2ccccc2c1)Nc1ccc(C(=O)NCCC(=O)O)cc1 [Compound 24-14, (S)-3-(4-((1-(isopropylamino)-3-(naphthalen-2-yl)-1-oxopropan-2-yl)amino)benzamido)propanoic Acid] | IC50 cAMP ([1]; uM): >10 µM
